In PMC6152416, “Pharmacological and Toxicological Screening of Novel Benzimidazole-Morpholine Derivatives as Dual-Acting Inhibitors” (Molecules : A Journal of Synthetic Chemistry and Natural …, 2017):
Where two headings read alike, the source gives them in different places.

Tests used:
[1] = Ames MPF genotoxicity assay; format: cell-based, Salmonella typhimurium; settings: Salmonella typhimurium; TA100, with/without S9, each concentration level; read-out: fold inductions over baseline
Procedure: The genotoxicity of selected compounds (2b, 2j, 2m) was determined by Ames assay using Ames MPF 98/100 mutagenicity assay sample kit (Xenometrix AG, Allschwil, Switzerland) as previously described elsewhere. Salmonella typhimurium strains, TA98 (frameshift mutations) and TA100 (base-pair substitutions) were used in the assay. The concentration of the compounds was between 16 and 5000 μg/mL, in accordance with the guideline. Compounds were prepared in six different concentrations (5.0, 2.5, 1.25, 0.625, 0.3125, 0.156 mg/mL) in DMSO. Mutagenic potential was determined in the absence or presence of Aroclor™-1254 induced male Sprague–Dawley rat liver microsomal enzyme (S9) mix (Xenometrix AG). Positive controls without S9 mix were 2-nitrofluorene (2.0 μg/mL) and 4-nitroquinoline N-oxide (0.1 μg/mL), whereas 1.0 μg/mL and 2.5 μg/mL of 2-aminoanthracene solutions were used as positive controls with S9 against TA98 and TA100, respectively. Solvent control was prepared with 4% DMSO. The end of an experiment was determined by the change of the indicator medium colour to yellow, which was originating from the decrease of pH due to revertant bacteria. Yellow wells were counted as positive, and compared with the negative control. Fold induction over the negative control and fold induction over the baseline were calculated (Fold induction over the negative control is accepted as the ratio of the mean number of positive wells for the dose concentration divided by the mean number of positive wells for the zero dose (negative) control. Fold induction over the baseline is accepted as the ratio of the mean number of positive wells for the dose concentration divided by zero dose baseline. The zero-dose baseline is obtained by adding one standard deviation to the mean number of positive wells of the zero dose control. If the baseline is less than 1, the value is set to 1 for calculation).
Mutagenicity was determined according to the criteria reported previously. For a baseline value of ≤3, significant increases between 2 and 3-fold of the baseline were classified as weak mutagen, and increases ≥3-fold of the baseline were classified as mutagen. […] As a rule, at least two adjacent doses with significant increases or a significant increase at the highest dose level should be observed for a mutagenic compound. All of the doses were compared according to Student’s t-test at p < 0.05 for statistical significance.

[2] = target: T1, COX-2 (Homo sapiens, UniProt P35354); assay: Fluorimetric COX-2 inhibition screening kit (BioVision); format: biochemical; settings: for COX-2 inhibition at the initial concentrations: 10^−3 M and 10^−4 M; for inhibition at 10 µM: 10^−5 M; for inhibition at 0.1 µM: 10^−7 M; for inhibition at 0.01 µM: 10^−8 M; for inhibition at 0.001 µM: 10^−9 M; for inhibition at 1 µM: read-out: COX 2 Inhibition %
T1 construct: purchased BioVision (Milpitas, CA, USA) K547-100
T1 sequence (P35354 18-604): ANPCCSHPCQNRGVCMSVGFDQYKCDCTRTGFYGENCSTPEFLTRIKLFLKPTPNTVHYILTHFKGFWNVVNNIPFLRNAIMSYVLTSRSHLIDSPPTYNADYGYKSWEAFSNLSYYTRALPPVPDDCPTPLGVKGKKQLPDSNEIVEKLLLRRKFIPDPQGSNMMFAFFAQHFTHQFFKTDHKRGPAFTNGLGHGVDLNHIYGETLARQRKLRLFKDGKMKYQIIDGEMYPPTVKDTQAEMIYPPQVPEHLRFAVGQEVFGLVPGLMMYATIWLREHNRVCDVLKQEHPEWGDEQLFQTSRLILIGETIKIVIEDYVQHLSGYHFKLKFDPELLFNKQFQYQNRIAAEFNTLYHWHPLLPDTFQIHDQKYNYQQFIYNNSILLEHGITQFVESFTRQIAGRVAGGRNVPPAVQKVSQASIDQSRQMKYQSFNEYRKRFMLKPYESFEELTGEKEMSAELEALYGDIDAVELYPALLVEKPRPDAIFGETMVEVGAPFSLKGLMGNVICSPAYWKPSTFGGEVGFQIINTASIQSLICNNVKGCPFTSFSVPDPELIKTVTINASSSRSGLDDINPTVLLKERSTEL
Procedure: Inhibitory potency of the compounds on COX-1 and COX-2 enzymes was determined by using fluorimetric COX-1 and COX-2 inhibition screening kits from BioVision (Milpitas, CA, USA). The experimental protocol as described in the guides provided by the supplier was followed. All of the pipetting were performed using a robotized system to increase speed, accuracy and precision. Fluorescence intensities of the samples were kinetically measured at 25 °C for 5–10 min by monitoring emissions at 587 nm after excitation at 535 nm. Two appropriate points (T1 and T2) in the linear range of the plot were chosen and the corresponding fluorescence values (RFU1 and RFU2) were obtained. The slope for all samples including Enzyme Control (EC) was calculated by dividing the net ΔRFU (RFU2 − RFU1) values by the time ΔT (T2 − T1). Percentage of relative inhibition was calculated by using the following equation:% Relative inhibition = (Slope of EC − Slope of S/Slope of EC) × 100 where S is the term representing the tested compound [51, 52]. […] The IC50 values were calculated using the plots of the enzyme activity against concentrations by applying regression analyses.

Compound	fold induction [1]	IC50 [2] [µM]	COX-2 Inhibition (%) ([2]; 10^-3 M)	COX-2 Inhibition (%) ([2]; 10^-4 M)	COX-2 inhibition at the initial concentrations [2]	inhibition at 10 µM [2] [%]	inhibition at 0.1 µM [2] [%]	inhibition at 0.01 µM [2] [%]	inhibition at 0.001 µM [2] [%]	inhibition at 1 µM [2] [%]	inhibition at 1 µM ([2]; 10^−6 M) [%]
FC(F)(F)Oc1ccc(-c2nc3ccccc3n2CCN2CCOCC2)cc1 [Compound 2m, 2-(4-Trifluoromethoxyphenyl)-1-[2-(morpholin-4-yl)ethyl]-1H-benzimidazole]	< 1.5	22.7	64.22	59.67	more than 50%	46.1 ± 1.13	34.5 ± 0.97	28.7 ± 0.83	22.3 ± 0.52	41.2 ± 1.05	–
COc1ccc(-c2nc3ccccc3n2CCN2CCOCC2)cc1 [Compound 2b, 2-(4-Methoxyphenyl)-1-[2-(morpholin-4-yl)ethyl]-1H-benzimidazole]	< 1.5	8.37	79.41	84.23	more than 50%	57.9 ± 1.28	38.1 ± 0.97	27.4 ± 0.87	21.4 ± 0.74	–	43.7 ± 1.12
CC(C)c1ccc(-c2nc3ccccc3n2CCN2CCOCC2)cc1 [Compound 2e, 2-(4-Isopropylphenyl)-1-[2-(morpholin-4-yl)ethyl]-1H-benzimidazole]	–	–	14.26	22.61	–	–	–	–	–	–	–
CCOc1ccc(-c2nc3ccccc3n2CCN2CCOCC2)cc1 [Compound 2j, 2-(4-Ethoxyphenyl)-1-[2-(morpholin-4-yl)ethyl]-1H-benzimidazole]	–	13.1	80.66	79.23	more than 50%	52.5 ± 1.35	34 ± 1.06	26.9 ± 0.86	20.5 ± 0.76	–	43.4 ± 1.27
Clc1ccc(-c2nc3ccccc3n2CCN2CCOCC2)cc1 [Compound 2c, 2-(4-Chlorophenyl)-1-[2-(morpholin-4-yl)ethyl]-1H-benzimidazole]	–	–	17.85	20.99	–	–	–	–	–	–	–
